pIC50: −log10 of the molar value. Numbered stars: 1 amine (or outer) side, 2 acyl side, 3 side chain; on linkers, the order of the positions; unused ones are H or OH. Bridge positions count the residues as written; N and C are the ends. Square brackets hold non-standard residues; d marks the D form. Peptide text beside a SMILES is read from it. X9 = O=C(C[C@H](C(=O)[*:2])C1CCCCC1)[C@@H]1CCCN1[*:1]; Ala(1H-tetrazol-5-yl) = N[C@@H](Cc1nnn[nH]1)C(=O)O; NMeW = CN[C@@H](Cc1c[nH]c2ccccc12)C(=O)O; Phe(3-Cl) = N[C@@H](Cc1cccc(Cl)c1)C(=O)O; Phe(4-Cl) = N[C@@H](Cc1ccc(Cl)cc1)C(=O)O; X1 = O=C(C(N[*:1])C1CCc2ccccc2C1)[*:2]; mXylylene = c1cc(C[*:1])cc(C[*:2])c1; NMeY = CN[C@@H](Cc1ccc(O)cc1)C(=O)O; NMeT = CN[C@H](C(=O)O)[C@@H](C)O; X2 = O=C(Cc1cccc(C[*:2])c1)[*:1]; Chg = N[C@H](C(=O)O)C1CCCCC1; Pen = CC(C)(S)[C@H](N)C(=O)O; Phg = N[C@H](C(=O)O)c1ccccc1; Tle = CC(C)(C)[C@H](N)C(=O)O; αMeP = C[C@@]1(C(=O)O)CCCN1; NMeS = CN[C@@H](CO)C(=O)O; Nva = CCC[C@H](N)C(=O)O; Mpa = O=C(O)CCS; Sar = CNCC(=O)O
Molecular target: T1, human plasma kallikrein (Homo sapiens, UniProt P03952)
T1 construct: purchased Enzyme Research Laboratories HPKa 1303
Assay: Enzyme inhibition assay (fluorogenic substrate H-Pro-Phe-Arg-AMC)
Assay type: biochemical
Conditions: Kallikrein inhibitory activity; 1 nM activated human kallikrein, 500 μM H-Pro-Phe-Arg-AMC, 1 hour room temperature; read-out: Avg. IC50
Protocol: Activated human plasma kallikrein (Enzyme Research Laboratories, HPKa 1303) was reacted with H-Pro-Phe-Arg-7-amido-4-methylcoumarin (H-Pro-Pre-Arg-AMC) (a fluorogenic substrate for plasma as well as pancreatic and urinary kallikreins; Bachem I-1295) and candidate inhibitory peptides to determine the IC50 of the inhibitor.
Ten 8-fold serial dilutions of peptides (10 mM DMSO stocks) were performed in DMSO and then added to TCNB (50 mM Tris-HCl pH 7.2, 150 mM NaCl, 10 mM CaCl2, 0.05% Brij-35) and sonicated. 50 μL of the peptide dilutions were added to microtitre plates (96 well, black non-binding surface, Corning, 3650) and incubated for 5 minutes at room temperature with 4 nM activated human kallikrein (final concentration after addition of fluorogenic substrate: 1 nM). The samples were then incubated for 1 hour at room temperature with 2 mM H-Pro-Phe-Arg-AMC (final concentration 500 μM). Relative Fluorescence Units (RFU) were measured at excitation/emission 360 nm/460 nm by a SpectraMax M3.

T1 sequence (P03952 20-390 limits assumed): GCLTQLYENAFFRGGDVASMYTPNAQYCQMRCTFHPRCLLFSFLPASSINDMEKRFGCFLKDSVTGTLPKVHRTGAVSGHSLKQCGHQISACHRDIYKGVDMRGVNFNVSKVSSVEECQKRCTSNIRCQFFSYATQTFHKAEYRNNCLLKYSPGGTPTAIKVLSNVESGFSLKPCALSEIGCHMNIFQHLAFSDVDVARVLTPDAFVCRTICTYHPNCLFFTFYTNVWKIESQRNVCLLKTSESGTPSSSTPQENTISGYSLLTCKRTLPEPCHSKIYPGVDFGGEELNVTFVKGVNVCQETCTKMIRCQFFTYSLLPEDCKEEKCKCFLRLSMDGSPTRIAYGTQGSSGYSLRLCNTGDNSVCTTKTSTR
T1 sequence (P03952 391-638 limits assumed): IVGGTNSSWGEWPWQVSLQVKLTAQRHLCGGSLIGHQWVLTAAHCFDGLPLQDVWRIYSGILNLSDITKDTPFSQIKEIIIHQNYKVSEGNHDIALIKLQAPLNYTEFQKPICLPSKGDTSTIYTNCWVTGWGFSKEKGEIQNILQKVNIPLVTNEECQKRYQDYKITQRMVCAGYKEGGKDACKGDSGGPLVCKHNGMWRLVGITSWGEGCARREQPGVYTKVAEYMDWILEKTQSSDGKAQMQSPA

| Compound | pIC50 |
| --- | --- |
| CC(=O)N[C@H]1CSSC[C@@H](C(N)=O)NC(=O)[C@H](C)NC(=O)[C@H]([C@@H](C)O)N(C)C(=O)[C@H](Cc2c[nH]c3ccccc23)NC(=O)[C@@H]2CCCN2C(=O)[C@H](CO)N(C)C(=O)[C@H](Cc2c[nH]c3ccccc23)NC(=O)[C@H](Cc2ccc(O)cc2)N(C)C(=O)[C@H](CC(N)=O)NC1=O [Compound R2224, [cyclo(1,10)]Ac-CN-nMeY-W-nMeS-PW-nMeT-AC-NH2] (Ac-CN[NMeY]W[NMeS]PW[NMeT]AC-NH2; disulfide 1-10) | < 4.00 |
| CC(C)(C)[C@H](NC(=O)[C@H](Cc1cccc(Cl)c1)NC(=O)[C@@H]1CSCc2cccc(c2)CSCCC(=O)N2CCC[C@H]2C(=O)N[C@@H](c2ccccc2)C(=O)N1)C(N)=O [Compound R2207, [mXylyl(1,4)](des-NH2)C-P-Phg-C-3-Cl-Phe-Tbg-NH2] ([Mpa]P[Phg]C[Phe(3-Cl)][Tle]-NH2; linker 1-4 via mXylylene) | < 4.12 |
| CC(C)(C)[C@H](NC(=O)[C@H](CCCNC(=N)N)NC(=O)[C@@H]1CCc2cn(nn2)CCCCCC(=O)N2CCC[C@H]2C(=O)N[C@@H](C2CCCCC2)C(=O)N1)C(N)=O [Compound R2254] | < 4.00 |
| CC(C)(C)[C@H](NC(=O)[C@H](CCCNC(=N)N)NC(=O)[C@@H]1C/C=C/c2cccc(c2)OCCCC(=O)N2CCC[C@H]2C(=O)N[C@@H](C2CCCCC2)C(=O)N1)C(N)=O [Compound R2262] | < 4.00 |
| CSCC[C@H](N)C(=O)N[C@H]1CSCc2cccc(c2)CSC[C@@H](C(=O)N[C@@H](CO)C(=O)N[C@@H](CCCNC(=N)N)C(N)=O)NC(=O)[C@H](CCC(=O)O)NC(=O)[C@H]([C@@H](C)O)NC(=O)[C@H](Cc2c[nH]c3ccccc23)NC(=O)[C@@H]2CCCN2C(=O)[C@H](CO)NC(=O)[C@H](Cc2c[nH]c3ccccc23)NC(=O)[C@H](Cc2ccc(O)cc2)NC(=O)[C@H](CC(N)=O)NC1=O [Compound R2003, [mXylyl(2,11)]MCNYWSPWTECSR-NH2] (H-MCNYWSPWTECSR-NH2; linker 2-11 via mXylylene) | 8.51 |
| CC(C)(C)[C@H](NC(=O)[C@H](Cc1ccc(Cl)cc1)NC(=O)[C@@H]1CSCc2cccc(c2)CSCCC(=O)N2CCC[C@H]2C(=O)N[C@@H](c2ccccc2)C(=O)N1)C(N)=O [Compound R2205, [mXylyl(1,4)](des-NH2)C-P-Phg-C-4-Cl-Phe-Tbg-NH2] ([Mpa]P[Phg]C[Phe(4-Cl)][Tle]-NH2; linker 1-4 via mXylylene) | < 4.12 |
| CC[C@H](C)[C@H](NC(=O)[C@H](CO)NC(=O)[C@H](CCC(=O)O)NC(=O)[C@H](CS)NC(=O)[C@@H](N)CCSC)C(=O)N[C@@H](CS)C(=O)N[C@@H](CCCNC(=N)N)C(=O)N[C@H](C(N)=O)C(C)C [Compound R2007, MCESICRV-NH2] (H-MCESICRV-NH2; N-terminus assumed) | 5.70 |
| CC[C@@H](C)[C@@H]1NC(=O)[C@@H]2CCCN2C(=O)CCCCCCCC/C=C/C[C@@H](C(=O)N[C@@H](CCCNC(=N)N)C(=O)N[C@H](C(N)=O)C(C)C)NC1=O [Compound R2243] | < 4.30 |
| CC(C)(C)[C@H](NC(=O)[C@H](CCCNC(=N)N)NC(=O)[C@@H]1CSCc2cccc(c2)CSCCC(=O)N2CCC[C@@]2(C)C(=O)N[C@@H](C2CCCCC2)C(=O)N1)C(N)=O [Compound R2180, [mXylyl(1,4)](des-NH2)C-(a-Me)P-Chg-CR-Tbg-NH2] ([Mpa][αMeP][Chg]CR[Tle]-NH2; linker 1-4 via mXylylene) | 8.17 |
| CC(C)(C)[C@H](NC(=O)[C@H](CCCNC(=N)N)NC(=O)[C@@H]1CCCn2cc(nn2)CCCCCC(=O)N2CCC[C@H]2C(=O)N[C@@H](C2CCCCC2)C(=O)N1)C(N)=O [Compound R2250] | < 4.00 |
| CC(=O)N[C@@H](CS)C(=O)N[C@@H](CC(N)=O)C(=O)N[C@@H](Cc1ccc(O)cc1)C(=O)N[C@@H](Cc1c[nH]c2ccccc12)C(=O)N[C@@H](CO)C(=O)N1CCC[C@H]1C(=O)N[C@@H](Cc1c[nH]c2ccccc12)C(=O)N[C@H](C(=O)N[C@@H](CCC(=O)O)C(=O)N[C@@H](CS)C(=O)N[C@@H](CO)C(=O)N[C@@H](C)C(N)=O)[C@@H](C)O [Compound R2116, Ac-CNYWSPWTECSA-NH2] (Ac-CNYWSPWTECSA-NH2) | 8.46 |
| Ac-ANYWSPWTAA-NH2 [Compound R2145, Ac-ANYWSPWTAA-NH2] | 7.23 |
| CC(C)(C)[C@H](NC(=O)[C@H](CCCNC(=N)N)NC(=O)[C@@H]1CSCc2cccc(c2)CSCCC(=O)N2CCC[C@H]2C(=O)C[C@@H](C2CCCCC2)C(=O)N1)C(N)=O [Compound R2247] ([Mpa][X9]CR[Tle]-NH2; linker 1-3 via mXylylene) | 6.32 |
| CC(=O)N[C@H](C(=O)N[C@H]1CSCc2cccc(c2)CSC[C@@H](C(N)=O)NC(=O)[C@H](C)NC(=O)[C@H](C(C)C)NC(=O)[C@H](CCCNC(=N)N)NC1=O)C1CCCCC1 [Compound R2159, [mXylyl(2,6)]Ac-Chg-CR-V-AC-NH2] (Ac-[Chg]CRVAC-NH2; linker 2-6 via mXylylene) | < 4.70 |
| CN1CC(=O)N2CCC[C@H]2C(=O)N[C@@H](C2CCCCC2)C(=O)N[C@H](C(=O)N[C@@H](CCCNC(=N)N)C(=O)N[C@H](C(N)=O)C(C)(C)C)CSCc2cccc(c2)CC1=O [Compound R2257] ([Sar]P[Chg]CR[Tle]-NH2; linker N-4 via X2) | 6.42 |
| CCC[C@H](N)C(=O)N[C@@H]1C(=O)N[C@@H](CCC(=O)O)C(=O)N[C@@H](CO)C(=O)N[C@@H]([C@@H](C)CC)C(=O)N[C@H](C(=O)N[C@@H](CCCNC(=N)N)C(=O)N[C@H](C(N)=O)C(C)C)C(C)(C)SCc2cccc(c2)CSC1(C)C [Compound R2034, [mXylyl(2,6)]Nvl-Pen-ESI-Pen-RV-NH2] (H-[Nva][Pen]ESI[Pen]RV-NH2; linker 2-6 via mXylylene) | < 4.00 |
| CC(C)(C)[C@H](NC(=O)[C@H](CCCNC(=N)N)NC(=O)[C@@H]1CCn2cc(nn2)CCCCCC(=O)N2CCC[C@H]2C(=O)N[C@@H](C2CCCCC2)C(=O)N1)C(N)=O [Compound R2251] | < 4.00 |
| CC[C@H](C)[C@@H]1NC(=O)[C@H](CO)NC(=O)[C@H](CCC(=O)O)NC(=O)[C@@H](NC(C)=O)CSCc2cccc(c2)CSC[C@@H](C(=O)N[C@@H](CCCNC(=N)N)C(=O)N[C@H](C(=O)N[C@@H](CC(C)C)C(=O)N[C@@H](CCCNC(=N)N)C(=O)N[C@@H](Cc2ccc(O)cc2)C(=O)N[C@@H](CO)C(N)=O)C(C)C)NC1=O [Compound R2056, [mXylyl(1,5)]Ac-CESICRVLRYS-NH2] (Ac-CESICRVLRYS-NH2; linker 1-5 via mXylylene) | 8.72 |
| CC[C@H](C)[C@@H]1NC(=O)[C@H](CO)NC(=O)[C@H](Cc2nn[nH]n2)NC(=O)[C@@H](NC(=O)[C@@H](N)CCSC)CSCc2cccc(c2)CSC[C@@H](C(=O)N[C@@H](CCCNC(=N)N)C(=O)N[C@H](C(N)=O)C(C)C)NC1=O [Compound R2020, [mXylyl(2,6)]MC-Asp(T)-SICRV-NH2] (H-MC[Ala(1H-tetrazol-5-yl)]SICRV-NH2; linker 2-6 via mXylylene) | 7.89 |
| N=C(N)NCCC[C@H](NC(=O)[C@@H]1CSCc2cccc(c2)CSCCC(=O)N2CCC[C@H]2C(=O)N[C@@H](C2CCCCC2)C(=O)N1)C(=O)O [Compound R2195, [mXylyl(1,4)](des-NH2)C-P-Chg-CR-OH] ([Mpa]P[Chg]CR-OH; linker 1-4 via mXylylene) | < 3.76 |
| CC(=O)N[C@@H](CS)C(=O)N[C@@H](CC(N)=O)C(=O)N[C@@H](Cc1ccc(O)cc1)C(=O)N(C)[C@@H](Cc1c[nH]c2ccccc12)C(=O)N[C@@H](CO)C(=O)N1CCC[C@H]1C(=O)N[C@@H](Cc1c[nH]c2ccccc12)C(=O)N[C@H](C(=O)N[C@@H](C)C(=O)N[C@@H](CS)C(N)=O)[C@@H](C)O [Compound R2238, Ac-CNY-nMeW-SPWTAC-NH2] (Ac-CNY[NMeW]SPWTAC-NH2) | < 5.34 |
| Ac-YWSPWTECSA-NH2 [Compound R2118, Ac-YW SPWTECSA-NH2] | < 4.00 |
| CC(=O)N[C@H]1CSSC[C@@H](C(N)=O)NC(=O)[C@H](C)NC(=O)[C@H]([C@@H](C)O)NC(=O)[C@H](Cc2c[nH]c3ccccc23)NC(=O)[C@@H]2CCCN2C(=O)[C@H](CO)NC(=O)[C@H](Cc2c[nH]c3ccccc23)NC(=O)[C@H](Cc2ccc(O)cc2)NC(=O)[C@H](CC(N)=O)NC1=O [Compound R2142, [cyclo(1,10)]Ac-CNYWSPWTAC-NH2] (Ac-CNYWSPWTAC-NH2; disulfide 1-10) | 8.57 |
| CC(C)(C)[C@H](NC(=O)[C@H](CCCNC(=N)N)NC(=O)[C@@H]1CSCc2cccc(c2)CSCCC(=O)N2CCC[C@H]2C(=O)NC(C2CCc3ccccc3C2)C(=O)N1)C(N)=O (some centres unmarked) [Compound R2267] ([Mpa]P[X1]CR[Tle]-NH2; linker 1-4 via mXylylene) | 7.89 |
| Ac-WSPWTECSA-NH2 [Compound R2119, Ac-WSPWTECSA-NH2] | < 4.00 |
| CC(=O)N[C@H]1CSCc2cccc(c2)CSC[C@@H](C(N)=O)NC(=O)[C@H](C)NC(=O)[C@H]([C@@H](C)O)N(C)C(=O)[C@H](Cc2c[nH]c3ccccc23)NC(=O)[C@@H]2CCCN2C(=O)[C@H](CO)N(C)C(=O)[C@H](Cc2c[nH]c3ccccc23)NC(=O)[C@H](Cc2ccc(O)cc2)N(C)C(=O)[C@H](CC(N)=O)NC1=O [Compound R2223, [mXylyl(1,10)]Ac-CN-nMeY-W-nMeS-PW-nMeT-AC-NH2] (Ac-CN[NMeY]W[NMeS]PW[NMeT]AC-NH2; linker 1-10 via mXylylene) | < 4.00 |

— patent US9999650B2, “Peptide and peptidomimetic inhibitors” (Ra Pharmaceuticals, Inc., priority 2012, dated 2018)
